Data: US12365687B2 (Hoffmann-La Roche Inc., priority 2021, dated 2025)

Experiments:
[1] = biological target: human GABAA α5β2γ1 receptor (Homo sapiens (Human), UniProt P31644+Q8N1C3); assay: Radioligand binding assay for γ1-containing GABAA subtypes, [3H]RO7239181 competition (α5β2γ1)
[2] = biological target: human GABAA α2β2γ1 receptor (Homo sapiens (Human), UniProt P47869+Q8N1C3); assay: Radioligand binding assay for γ1-containing GABAA subtypes, [3H]RO7239181 competition (α2β2γ1)
[3] = biological target: human GABAA α1β3γ2 receptor (Homo sapiens (Human), UniProt P14867+P18507); assay: Radioligand binding assay for γ2-containing GABAA subtypes, [3H]Flumazenil competition (α1β3γ2); settings: for γ2/γ1 Selectivity Ratio: Ki α1β3γ2 (nM)/Ki α2β2γ1 (nM); for LogSel: Log[Ki α1β3γ2 (nM)/Ki α2β2γ1 (nM)]
[4] = biological target: α2β2γ1 GABAA receptor subtype (Homo sapiens (Human), UniProt P47869+Q8N1C3); assay: Two-electrode voltage clamp electrophysiology in Xenopus oocytes expressing GABAA receptors (modulation of GABA EC20 current); format: cell-based; settings: for Efficacy (GABA)%: % modulation of GABA EC20 = 100*(Fold increase-1), α2β2γ1 oocytes, compound at approx. 30-fold Ki; for Fold increase h-GABA-A α2β2γ1 oocyte @ 30-fold Ki: Xenopus oocytes expressing α2β2γ1, compound at approx. 30-fold its Ki α2β2γ1, GABA EC20 current
Method in brief: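 Each concentration was tested on ≥3 oocytes held at −80 mV at room temperature, recorded 3-5 days post-injection. A control and a test response to EC20 GABA (1.5 min each) were superimposed and their point-by-point ratio taken. Peak ratio reported as % modulation of GABA EC20 = 100×(fold increase−1).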

[5] = Ki h-GABAA α2β2γ1, [3H]RO7239181 competition binding, human GABAA α2β2γ1
[6] = Ki h-GABAA α2β2γ1, displacement of [3H]RO7239181, membranes of HEK293F cells expressing human receptors, means of two determinations

Row | Structure (SMILES) | Ki [1] [nM] | Ki [2, 5] [nM] | Ki [2, 6] [nM] | Ki [3] [nM] | γ2/γ1 Selectivity Ratio [3] | LogSel [3] | Efficacy (GABA)% [4] [%] | Fold increase h-GABA-A α2β2γ1 oocyte @ 30-fold Ki [4]
1 | C[C@@H]1N=C(c2ncccc2F)c2c(ccc(C(F)(F)F)c2Cl)-n2cc(C(=O)NC[C@@H](C)O)nc21 [Example 157, (4S)-7-chloro-6-(3-fluoro-2-pyridyl)-4-methyl-N-[(2R)-2-hydroxypropyl]-8-(trifluoromethyl)-4H-imidazo[1,2-a][1,4]benzodiazepine-2-carboxamide] | 13.4 | 60.1 | 60 | 11100 | 185.8 | 2.27 | 191 | 2.91
2 | C[C@@H]1N=C(c2ncccc2F)c2c(ccc(C(F)(F)F)c2Cl)-n2cc(C(=O)NCCO)nc21 [Example 141, (4S)-7-chloro-6-(3-fluoro-2-pyridyl)-N-(2-hydroxyethyl)-4-methyl-8-(trifluoromethyl)-4H-imidazo[1,2-a][1,4]benzodiazepine-2-carboxamide] | 12.4 | 55.9 | 55.9 | 12200 | 218.4 | 2.34 | 112 | 2.12
3 | C[C@H](O)CNC(=O)c1cn2c(n1)[C@H](C)N=C(c1ncccc1F)c1c-2ccc(C(F)(F)F)c1Cl [Example 155, (4S)-7-chloro-6-(3-fluoro-2-pyridyl)-4-methyl-N-[(2S)-2-hydroxypropyl]-8-(trifluoromethyl)-4H-imidazo[1,2-a][1,4]benzodiazepine-2-carboxamide] | 10.8 | 49.7 | 49.3 | 8990 | 182.4 | 2.26 | 193 | 2.93
4 | C[C@@H]1N=C(c2ncccc2F)c2c(ccc(Cl)c2Cl)-n2nc(C(=O)N3CC(OC(F)F)C3)nc21 [Example 90, [(4S)-7,8-dichloro-6-(3-fluoro-2-pyridyl)-4-methyl-4H-[1,2,4]triazolo[1,5-a][1,4]benzodiazepin-2-yl]-[3-(difluoromethoxy)azetidin-1-yl]methanone] | 6.09 | 21.8 | 21.8 | 4740 | 217.2 | 2.34 | 104 | 2.04
5 | C[C@@H]1N=C(c2ncccc2F)c2c(ccc(C(F)(F)F)c2Cl)-n2nc(C(=O)N3CC4(CCO4)C3)nc21 [Example 119, 1-oxa-6-azaspiro[3.3]heptan-6-yl-[(4S)-7-chloro-6-(3-fluoro-2-pyridyl)-4-methyl-8-(trifluoromethyl)-4H-[1,2,4]triazolo[1,5-a][1,4]benzodiazepin-2-yl]methanone] | 10.3 | 80.9 | 80.9 | 12600 | 156.1 | 2.19 | 124 | 2.24
6 | CNC(=O)c1nc2n(n1)-c1ccc(Cl)c(Cl)c1C(c1c(F)cccc1F)=NC2 [Example 6, 7,8-dichloro-6-(2,6-difluorophenyl)-N-methyl-4H-[1,2,4]triazolo[1,5-a][1,4]benzodiazepine-2-carboxamide] | 0.75 | 5.5 | 5.5 | 1440 | 260.9 | 2.42 | 101 | 2.01
7 | COCc1nc2n(n1)-c1ccc(Cl)c(Cl)c1C(c1c(F)cccc1F)=N[C@H]2C [Example 27, (4S)-7,8-dichloro-6-(2,6-difluorophenyl)-2-(methoxymethyl)-4-methyl-4H-[1,2,4]triazolo[1,5-a][1,4]benzodiazepine] | 1.08 | 11.4 | 11.4 | 707 | 61.8 | 1.79 | 69 | 1.69
8 | COc1nc2n(n1)-c1ccc(Cl)c(Cl)c1C(c1c(F)cccc1F)=N[C@H]2C [Example 91, (4S)-7,8-dichloro-6-(2,6-difluorophenyl)-2-methoxy-4-methyl-4H-[1,2,4]triazolo[1,5-a][1,4]benzodiazepine] | 1.5 | 23.7 | 23.7 | 752 | 31.7 | 1.50 | 75 | 1.75
9 | C[C@@H]1N=C(c2ncccc2F)c2c(ccc(C(F)(F)F)c2Cl)-n2cc(C(=O)N3CC(C(F)F)C3)nc21 [Example 156, [3-(difluoromethyl)azetidin-1-yl]-[(4S)-7-chloro-6-(3-fluoro-2-pyridyl)-4-methyl-8-(trifluoromethyl)-4H-imidazo[1,2-a][1,4]benzodiazepin-2-yl]methanone] | 15.5 | 95.1 | 93.1 | 10800 | 116.1 | 2.06 | 168 | 2.68
10 | C[C@@H]1N=C(c2ncccc2F)c2c(ccc(C(F)(F)F)c2Cl)-n2nc(C(=O)N3CC[C@H](F)C3)nc21 [Example 123, [(4S)-7-chloro-6-(3-fluoro-2-pyridyl)-4-methyl-8-(trifluoromethyl)-4H-[1,2,4]triazolo[1,5-a][1,4]benzodiazepin-2-yl]-[(3S)-3-fluoropyrrolidin-1-yl]methanone] | 9.75 | 91.8 | 91.9 | > 30000 | 326.6 | 2.51 | 162 | 2.62
11 | CCNC(=O)c1nc2n(n1)-c1ccc(Cl)c(Cl)c1C(c1c(F)cccc1F)=N[C@H]2C [Example 64, (4S)-7,8-dichloro-6-(2,6-difluorophenyl)-N-ethyl-4-methyl-4H-[1,2,4]triazolo[1,5-a][1,4]benzodiazepine-2-carboxamide] | 1.16 | 5.4 | 5.4 | 889 | 165.6 | 2.22 | 75 | 1.75
12 | C[C@@H]1N=C(c2ncccc2F)c2c(ccc(C(F)(F)F)c2Cl)-n2nc(C(=O)N3CC(OC(F)F)C3)nc21 [Example 140, [(4S)-7-chloro-6-(3-fluor-2-pyridyl)-4-methyl-8-(trifluoromethyl)-4H-[1,2,4]triazolo[1,5-a][1,4]benzodiazepin-2-yl]-[3-(difluoromethoxy)azetidin-1-yl]methanone] | 6.63 | 28.8 | 28.8 | > 30000 | 1041.0 | 3.02 | 121 | 2.21
13 | COC1CN(C(=O)c2nc3n(n2)-c2ccc(C(F)(F)F)c(Cl)c2C(c2c(F)cccc2F)=NC3)C1 [Example 37, [7-chloro-6-(2,6-difluorophenyl)-8-(trifluoromethyl)-4H-[1,2,4]triazolo[1,5-a][1,4]benzodiazepin-2-yl]-(3-methoxyazetidin-1-yl)methanone] | 1.8 | 4.5 | 4.49 | 772 | 171.8 | 2.24 | 47 | 1.47
